From the NIST ThermoML archive (doi:10.1021/je200673a)
± gives the expanded uncertainty stated by the source.

What was measured:
[1] = Molar enthalpy of transition or fusion; settings: Crystal; Adiabatic calorimetry
[2] = Crystal; Adiabatic calorimetry

- Molar enthalpy of transition or fusion [1]: 5.029 ± 0.0454 kcal/mol
- Triple point temperature [2]: 332.02 ± 0.05 K
SMILES: C(#Cc1ccccc1)c1ccccc1 [1,2-diphenylethyne]
